Test results as given in ChEMBL document CHEMBL3885881, “DrugMatrix”.

Organism: Rattus norvegicus
Test: DrugMatrix - Regimen: Daily Repeat
Assay type: toxicity, organism-based, Sprague-Dawley
Set-up: regimen Daily Repeat, gender Male, age 6-8 weeks
Conditions: in vivo, po, route oral GAVAGE, vehicle 100 % WATER; for ABSOLUTE BASOPHIL / ABSOLUTE EOSINOPHIL / ABSOLUTE LYMPHOCYTE / ABSOLUTE MONOCYTE / ABSOLUTE SEGMENTED NEUTROPHIL / BASOPHIL / EOSINOPHIL / ERYTHROCYTE COUNT / HEMATOCRIT / HEMOGLOBIN / LEUKOCYTE COUNT / LYMPHOCYTE / MEAN CORPUSCULAR HEMOGLOBIN / MEAN CORPUSCULAR HEMOGLOBIN CONCENTRATION / MEAN CORPUSCULAR VOLUME / MONOCYTE / NEUTROPHIL / NUCLEATED RED BLOOD CELLS / PLATELET COUNT: tissue Blood; for ALANINE AMINOTRANSFERASE / ALBUMIN / ALKALINE PHOSPHATASE / ASPARTATE AMINOTRANSFERASE / BLOOD UREA NITROGEN / CARBON DIOXIDE / CHLORIDE / CHOLESTEROL / CREATINE PHOSPHOKINASE / CREATININE / GLUCOSE / LACTATE DEHYDROGENASE / LIPASE / PHOSPHORUS / POTASSIUM / SODIUM / TOTAL BILIRUBIN / TOTAL PROTEIN / URIC ACID: tissue Plasma
[1] = 110 mg/kg, 72 h, dose level Low, time 3 day
[2] = 110 mg/kg, 120 h, dose level Low, time 5 day
[3] = 400 mg/kg, 72 h, dose level High, time 3 day
[4] = 400 mg/kg, 120 h, dose level High, time 5 day

CCOC(=O)n1ccn(C)c1=S [CARBIMAZOLE]
ABSOLUTE BASOPHIL [1]: 0 CELLS/uL | ABSOLUTE EOSINOPHIL [1]: 15.67 CELLS/uL | ABSOLUTE LYMPHOCYTE [1]: 5022.67 CELLS/uL | ABSOLUTE MONOCYTE [1]: 37.33 CELLS/uL | ABSOLUTE SEGMENTED NEUTROPHIL [1]: 357.67 CELLS/uL | BASOPHIL [1]: 0% | EOSINOPHIL [1]: 0.33% | ERYTHROCYTE COUNT [1]: 5.37 x10E6/uL | HEMATOCRIT [1]: 33.5% | HEMOGLOBIN [1]: 13.37 G/DL | LEUKOCYTE COUNT [1]: 5.43 x10E3/uL | LYMPHOCYTE [1]: 92% | MEAN CORPUSCULAR HEMOGLOBIN [1]: 24.9 pg | MEAN CORPUSCULAR HEMOGLOBIN CONCENTRATION [1]: 39.9 G/DL | MEAN CORPUSCULAR VOLUME [1]: 62.43 fL | MONOCYTE [1]: 0.67% | NEUTROPHIL [1]: 7% | NUCLEATED RED BLOOD CELLS [1]: 0 /100WBC | PLATELET COUNT [1]: 1166.67 x10E3/uL | ALANINE AMINOTRANSFERASE [1]: 39.33 u/L | ALBUMIN [1]: 4.23 G/DL | ALKALINE PHOSPHATASE [1]: 314 u/L | ASPARTATE AMINOTRANSFERASE [1]: 65.33 u/L | BLOOD UREA NITROGEN [1]: 19.33 mg/dL | CARBON DIOXIDE [1]: 29.33 mmol/L | CHLORIDE [1]: 102 MEQ/L | CHOLESTEROL [1]: 81.67 mg/dL | CREATINE PHOSPHOKINASE [1]: 137 u/L | CREATININE [1]: 0.2 mg/dL | GLUCOSE [1]: 129.33 mg/dL | LACTATE DEHYDROGENASE [1]: 155 u/L | LIPASE [1]: 9.33 u/L | PHOSPHORUS [1]: 10.27 mg/dL | POTASSIUM [1]: 6.06 MEQ/L | SODIUM [1]: 147.63 MEQ/L | TOTAL BILIRUBIN [1]: 0.2 mg/dL | TOTAL PROTEIN [1]: 6 G/DL | URIC ACID [1]: 0.7 mg/dL | ABSOLUTE BASOPHIL [2]: 0 CELLS/uL | ABSOLUTE EOSINOPHIL [2]: 0 CELLS/uL | ABSOLUTE LYMPHOCYTE [2]: 14370.67 CELLS/uL | ABSOLUTE MONOCYTE [2]: 96 CELLS/uL | ABSOLUTE SEGMENTED NEUTROPHIL [2]: 766.67 CELLS/uL | BASOPHIL [2]: 0% | EOSINOPHIL [2]: 0% | ERYTHROCYTE COUNT [2]: 6.23 x10E6/uL | HEMATOCRIT [2]: 38.1% | HEMOGLOBIN [2]: 14.73 G/DL | LEUKOCYTE COUNT [2]: 15.23 x10E3/uL | LYMPHOCYTE [2]: 94% | MEAN CORPUSCULAR HEMOGLOBIN [2]: 23.67 pg | MEAN CORPUSCULAR HEMOGLOBIN CONCENTRATION [2]: 38.73 G/DL | MEAN CORPUSCULAR VOLUME [2]: 61.13 fL | MONOCYTE [2]: 0.67% | NEUTROPHIL [2]: 5.33% | NUCLEATED RED BLOOD CELLS [2]: 0 /100WBC | PLATELET COUNT [2]: 998 x10E3/uL | ALANINE AMINOTRANSFERASE [2]: 56.67 u/L | ALBUMIN [2]: 4.53 G/DL | ALKALINE PHOSPHATASE [2]: 416.67 u/L | ASPARTATE AMINOTRANSFERASE [2]: 76.67 u/L | BLOOD UREA NITROGEN [2]: 19 mg/dL | CARBON DIOXIDE [2]: 23.33 mmol/L | CHLORIDE [2]: 103 MEQ/L | CHOLESTEROL [2]: 83 mg/dL | CREATINE PHOSPHOKINASE [2]: 286 u/L | CREATININE [2]: 0.2 mg/dL | GLUCOSE [2]: 154 mg/dL | LACTATE DEHYDROGENASE [2]: 175.67 u/L | LIPASE [2]: 9.67 u/L | PHOSPHORUS [2]: 12.53 mg/dL | POTASSIUM [2]: 6.34 MEQ/L | SODIUM [2]: 148.13 MEQ/L | TOTAL BILIRUBIN [2]: 0.2 mg/dL | TOTAL PROTEIN [2]: 6.87 G/DL | URIC ACID [2]: 1.97 mg/dL | ABSOLUTE BASOPHIL [3]: 0 CELLS/uL | ABSOLUTE EOSINOPHIL [3]: 0 CELLS/uL | ABSOLUTE LYMPHOCYTE [3]: 9627.33 CELLS/uL | ABSOLUTE MONOCYTE [3]: 0 CELLS/uL | ABSOLUTE SEGMENTED NEUTROPHIL [3]: 872.67 CELLS/uL | BASOPHIL [3]: 0% | EOSINOPHIL [3]: 0% | ERYTHROCYTE COUNT [3]: 5.66 x10E6/uL | HEMATOCRIT [3]: 35.3% | HEMOGLOBIN [3]: 14.1 G/DL | LEUKOCYTE COUNT [3]: 10.5 x10E3/uL | LYMPHOCYTE [3]: 91.67% | MEAN CORPUSCULAR HEMOGLOBIN [3]: 24.9 pg | MEAN CORPUSCULAR HEMOGLOBIN CONCENTRATION [3]: 40.03 G/DL | MEAN CORPUSCULAR VOLUME [3]: 62.3 fL | MONOCYTE [3]: 0% | NEUTROPHIL [3]: 8.33% | NUCLEATED RED BLOOD CELLS [3]: 0 /100WBC | PLATELET COUNT [3]: 1182.33 x10E3/uL | ALANINE AMINOTRANSFERASE [3]: 38.33 u/L | ALBUMIN [3]: 4.2 G/DL | ALKALINE PHOSPHATASE [3]: 421 u/L | ASPARTATE AMINOTRANSFERASE [3]: 56 u/L | BLOOD UREA NITROGEN [3]: 12.67 mg/dL | CARBON DIOXIDE [3]: 25.67 mmol/L | CHLORIDE [3]: 101.67 MEQ/L | CHOLESTEROL [3]: 82 mg/dL | CREATINE PHOSPHOKINASE [3]: 338 u/L | CREATININE [3]: 0.17 mg/dL | GLUCOSE [3]: 149 mg/dL | LACTATE DEHYDROGENASE [3]: 171 u/L | LIPASE [3]: 9.67 u/L | PHOSPHORUS [3]: 11.57 mg/dL | POTASSIUM [3]: 6.88 MEQ/L | SODIUM [3]: 143.1 MEQ/L | TOTAL BILIRUBIN [3]: 0.2 mg/dL | TOTAL PROTEIN [3]: 5.97 G/DL | URIC ACID [3]: 1.73 mg/dL | ABSOLUTE BASOPHIL [4]: 0 CELLS/uL | ABSOLUTE EOSINOPHIL [4]: 0 CELLS/uL | ABSOLUTE LYMPHOCYTE [4]: 9558.67 CELLS/uL | ABSOLUTE MONOCYTE [4]: 45.33 CELLS/uL | ABSOLUTE SEGMENTED NEUTROPHIL [4]: 1996 CELLS/uL | BASOPHIL [4]: 0% | EOSINOPHIL [4]: 0% | ERYTHROCYTE COUNT [4]: 5.99 x10E6/uL | HEMATOCRIT [4]: 37.23% | HEMOGLOBIN [4]: 15.17 G/DL | LEUKOCYTE COUNT [4]: 11.6 x10E3/uL | LYMPHOCYTE [4]: 82.33% | MEAN CORPUSCULAR HEMOGLOBIN [4]: 25.33 pg | MEAN CORPUSCULAR HEMOGLOBIN CONCENTRATION [4]: 40.73 G/DL | MEAN CORPUSCULAR VOLUME [4]: 62.13 fL | MONOCYTE [4]: 0.33% | NEUTROPHIL [4]: 17.33% | NUCLEATED RED BLOOD CELLS [4]: 0 /100WBC | PLATELET COUNT [4]: 1416 x10E3/uL | ALANINE AMINOTRANSFERASE [4]: 37.33 u/L | ALBUMIN [4]: 3.73 G/DL | ALKALINE PHOSPHATASE [4]: 235 u/L | ASPARTATE AMINOTRANSFERASE [4]: 30.33 u/L | BLOOD UREA NITROGEN [4]: 19 mg/dL | CARBON DIOXIDE [4]: 20.67 mmol/L | CHLORIDE [4]: 105.33 MEQ/L | CHOLESTEROL [4]: 80 mg/dL | CREATINE PHOSPHOKINASE [4]: 198 u/L | CREATININE [4]: 0.16 mg/dL | GLUCOSE [4]: 124.67 mg/dL | LACTATE DEHYDROGENASE [4]: 434.67 u/L | LIPASE [4]: 9.33 u/L | PHOSPHORUS [4]: 11.57 mg/dL | POTASSIUM [4]: 6.35 MEQ/L | SODIUM [4]: 144.43 MEQ/L | TOTAL BILIRUBIN [4]: 0.17 mg/dL | TOTAL PROTEIN [4]: 5.8 G/DL | URIC ACID [4]: 1.57 mg/dL
